# Patent US20130178441A1, “Methods for Extending Progression-Free Survival using 10-Propargyl-10-Deazaaminopterin” (ALLOS THERAPEUTICS, INC., priority 2010, published 2013)
# Where “and” joins values, the source holds several entries; their conditions need not be identical. Equal values may be shown once. Entries after “also recorded” stand apart in the source; their conditions may differ. Marks after values point to notes of the source that are not given here.
# How the values were obtained:
# Format in all cases: in vivo, human
# [1] = tested on: relapsed or refractory peripheral T-cell lymphoma (PTCL); experiment: PROPEL (PDX-008) pivotal trial of pralatrexate, overall population (N=109)
# Source text: Pralatrexate was approved under the provisions of accelerated approval is the United States for the treatment of patients with relapsed/refractory PTCL based on the results of the pivotal trial PROPEL (Pralatrexate in Patients with Relapsed Or Refractory Peripheral T-cell Lymphoma). The primary endpoint, objective response rate (ORR) by independent central review using International Workshop Criteria, was 29% (32/109), including 11% complete response/complete response unconfirmed (CR/CRu) with a median duration of response of 10.1 months. The ORR by investigator assessment was 39% (43/109), including 18% CR/CRu.
# The prognosis of aggressive PTCL is dismal. Investigators have developed salvage regimens attempting to improve outcomes for patients with relapsed or refractory disease. One such regimen frequently used is ifosfamide, carboplatin, and etoposide (ICE) or ICE-based regimens (eg, and rituximab-ICE [RICE] and dexamethasome-ICE [DICE]). These regimens can have response rates approaching 70% and patients may proceed to a stem cell transplant, yet most patients tend to relapse quickly (Horwitz et al Blood 2005; 106:a2679). Thus, optimal approaches for patients with relapsed or refractory disease are needed, and agents based on a unique mechanism of action warrant study. This analysis was conducted to determine if pralatrexate offered a beneficial treatment option for patients after treatment with an ICE/RICE/DICE regimen. Methods: Pralatrexate was administered via intravenous push over 3 to 5 minutes at 30 mg/m^2/week for six weeks in 7-week cycles with concurrent 1 mg vitamin B12 intramuscular every 8 to 10 weeks and folic acid 1.0 to 1.25 mg by mouth once daily. 109 patients were treated with pralatrexate in the PROPEL study. All patients in the PROPEL study had received at least 1 prior therapy for PTCL. A subset of 20 patients had received ICE, RICE or DICE at some point prior to treatment with pralatrexate. The efficacy in these patients was compared to the remainder of the patient population who had not received ICE/RICE/DICE as a therapy for PTCL prior to pralatrexate (n=89). The patient population that previously received an ICE-based regimen was heavily pretreated with am edian of 3 prior systemic regimens (range, 2-11). The median age was 45 years, a younger patient population compared with the overall PROPEL population (59 years).
# (§1) The pivotal PROPEL study of pralatrexate (FOLOTYN®) in patients with relapsed or refractory PTCL reported a rapid response to treatment in a heavily pretreated patient population. The majority of patients (63% of responders) responded by their first assessment at 7 weeks (the end of cycle 1). The present analysis assessed if there were any unique characteristics of patients who were unable to complete the first cycle of therapy and to assess the outcomes of patients who received ≧1 or ≧2 cycles of pralatrexate. Pralatrexate, a folate analog targeting dihydrofolate reductase, was approved in the United States for treatment of relapsed or refractory PTCL based on the PROPEL study. Methods: In PROPEL, patients received 30 mg/m^2 pralatrexate once weekly for 6 weeks in successive 7-week cycles. […] Cycle completion was determined receiving ≧1 dose in the following cycle. Thus, the subgroup of patients who completed ≧1 (n=64) includes those patients who only completed 1 cycle+the 43 who completed ≧2 cycles of treatment. […] However, the patients not completing cycle lwere more likely to have the angioimmunoblastic subtype (20% vs 6%). Patients in each subgroup received a median of 3 prior treatment regimens.
# relapsed/refractory PTCL [2] = experiment: PROPEL subset analysis: second-line pralatrexate after first-line CHOP only (N=15) vs other patients (n=94)
# Experimental: The most common therapy for first-line treatment of PTCL is the multi-agent combination cyclophosphamide/doxorubicin/vincristine prednisone (CHOP). However, most patients progress within 6-12 months, and there is no standard of care for second-line treatment of these patients. Thus optimal second-line approaches are needed and agents based on a unique mechanism of action warrant study. This analysis was conducted to determine if pralatrexate offered a beneficial second-line treatment option. […] All patients in the PROPEL study had received at least 1 prior therapy for PTCL. […] The efficacy in these patients was compared with the remainder of the patient population who had not received CHOP as their only therapy for PTCL prior to pralatrexate (n=94).
# relapsed/refractory PTCL [3] = experiment: PROPEL analysis by treatment duration (<1, ≧1, ≧2 cycles of pralatrexate): efficacy; conditions: for Median PFS by Central Review (months): Kaplan-Meier
# Experimental: as §1
# [4] = 15 patients with CHOP as only prior therapy
# [5] = individual responders after first-line CHOP, central review, most values censored
# [6] = other patients in the study (n=94)
# [7] = second-line after CHOP, N=15, central review
# [8] = second-line after CHOP, N=15, investigator
# [9] = second-line after CHOP, N=15, investigator, Kaplan-Meier
# [10] = second-line after CHOP, N=15, investigator, Kaplan-Meier, listed as pralatrexate
# [11] = Treatment Duration <1 cycle (n=45)
# [12] = Treatment Duration ≧1 cycle (n=64)
# [13] = Treatment Duration ≧2 cycles (n=43)
smiles,measurement,setting,value
"C#CCC(Cc1cnc2nc(N)nc(N)c2n1)c1ccc(C(=O)N[C@@H](CCC(=O)O)C(=O)O)cc1 (mixture of isomers) [Pralatrexate, (2S)-2-[[4-[(1RS)-1-[(2,4-diaminopteridin-6-yl)methyl]but-3-ynyl]benzoyl]amino]pentanedioic acid]",Responders who responded by their first assessment at 7 weeks (end of cycle 1),[1]; % of responders,63%
same,CR/CRu (complete response/complete response unconfirmed) by independent central review,[1]; all 109 patients,11%
same,CR/CRu by investigator assessment,[1]; all 109 patients,18%
same,Median duration of PFS by central review,[1]; all 109 patients,3.5 months
same,Median duration of PFS by investigator assessment,[1]; all 109 patients,4.0 months
same,Median duration of response by central review,[1]; all 109 patients,10.1 months
same,Median duration of response by investigator assessment,[1]; all 109 patients,8.1 months
same,ORR by investigator assessment,[1]; all 109 patients,39%
same,Objective response rate (ORR) by independent central review using International Workshop Criteria,[1]; all 109 patients,29%
same,CR/CRu by investigators assessment,relapsed/refractory PTCL [2]; [4],33%
same,Complete responses [CR] by independent central review,relapsed/refractory PTCL [2]; [4],20%
same,ORR by investigator assessment,relapsed/refractory PTCL [2]; [4],40%
same,Overall response rate (ORR) by independent central review,relapsed/refractory PTCL [2]; [4],47%
same,Duration of Response,"relapsed/refractory PTCL [2]; individual responder after first-line CHOP, central review, censored (initiation of other subsequent therapy)",1 day^a
same,Duration of Response (months),relapsed/refractory PTCL [2]; [5],10.1^a months and 9.7^b months and 8.3^b months and 6.5^a months and 3.3^c months and 2.3^c months
same,PFS (months),relapsed/refractory PTCL [2]; [5],14.8^a months and 17.8^b months and 15.5^b months and 8.1 months and 4.6^c months and 3.4^c months and 4.6^a months
same,Duration of Response (months),"relapsed/refractory PTCL [2]; individual responders after first-line CHOP, central review, most values censored, listed as pralatrexate",2.3 months and 3.3 months
same,Patients still alive at the time of last contact,relapsed/refractory PTCL [2]; of the 15 patients,73%
same,Patients who proceeded to a stem cell transplant upon attaining a response to pralatrexate,relapsed/refractory PTCL [2]; of the 15 patients treated only with CHOP,Two
same,CR/CRu by investigators assessment,relapsed/refractory PTCL [2]; other patients (n=94),16%
same,Median PFS according to central review,relapsed/refractory PTCL [2]; other patients (n=94),3.1 months
same,Median PFS per investigator assessment,relapsed/refractory PTCL [2]; other patients (n=94),3.5 months
same,Median duration of response per investigator assessment,relapsed/refractory PTCL [2]; other patients (n=94),6.7 months
same,ORR by investigators assessment,relapsed/refractory PTCL [2]; other patients (n=94),39%
same,CR/CRu by independent central review,relapsed/refractory PTCL [2]; [6],10%
same,ORR by independent central review,relapsed/refractory PTCL [2]; [6],27%
same,12-month OS estimate,"relapsed/refractory PTCL [2]; second-line after CHOP, N=15",73%
same,"OS, Median, months (95% CI)","relapsed/refractory PTCL [2]; second-line after CHOP, N=15, NE = not able to estimate",not able to be estimated
same,"PFS, Range",relapsed/refractory PTCL [2]; [7],0.7-17.8^c months
same,Tumor Response: CRu,relapsed/refractory PTCL [2]; [7],0 (0) n (%)
same,Tumor Response: Not evaluable,relapsed/refractory PTCL [2]; [7],0 (0) n (%)
same,Tumor Response: ORR (CR + CRu + PR),relapsed/refractory PTCL [2]; [7],7 (47) n (%)
same,Tumor response: CR,relapsed/refractory PTCL [2]; [7],3 (20) n (%)
same,Tumor response: PD,relapsed/refractory PTCL [2]; [7],4 (27) n (%)
same,Tumor response: PR,relapsed/refractory PTCL [2]; [7],4 (27) n (%)
same,Tumor response: SD,relapsed/refractory PTCL [2]; [7],4 (27) n (%)
same,"PFS, Median, months (95% CI)","relapsed/refractory PTCL [2]; second-line after CHOP, N=15, central review, Kaplan-Meier","8.1 (4.6, NE) months"
same,"PFS, Median, months (95% CI)","relapsed/refractory PTCL [2]; second-line after CHOP, N=15, central review, Kaplan-Meier, listed as pralatrexate",8.1 months
same,"Duration of response, Median, months (95% CI)","relapsed/refractory PTCL [2]; second-line after CHOP, N=15, central review, NE = not able to estimate, insufficient PD events",not reached; also recorded: not yet estimable
same,Tumor Response: CRu,relapsed/refractory PTCL [2]; [8],1 (7) n (%)
same,Tumor Response: Not evaluable,relapsed/refractory PTCL [2]; [8],1 (7)^a n (%)
same,Tumor Response: ORR (CR + CRu + PR),relapsed/refractory PTCL [2]; [8],6 (40) n (%)
same,Tumor response: CR,relapsed/refractory PTCL [2]; [8],4 (27) n (%)
same,Tumor response: PD,relapsed/refractory PTCL [2]; [8],4 (27) n (%)
same,Tumor response: PR,relapsed/refractory PTCL [2]; [8],1 (7) n (%)
same,Tumor response: SD,relapsed/refractory PTCL [2]; [8],4 (27) n (%)
same,"Duration of response, Median, months (95% CI)",relapsed/refractory PTCL [2]; [9],"12.5 (10.8, NE) months"
same,"PFS, Median, months (95% CI)",relapsed/refractory PTCL [2]; [9],"7.4 (2.3, 15.0) months"
same,"Duration of response, Median, months (95% CI)",relapsed/refractory PTCL [2]; [10],12.5 months
same,"PFS, Median, months (95% CI)",relapsed/refractory PTCL [2]; [10],7.4 months
same,"OS, Range","relapsed/refractory PTCL [2]; second-line after CHOP, N=15, survival follow-up ended at 2 years",1.5-24.0^d months
same,Current disease-free period (duration of response to pralatrexate + time since stem cell transplant),relapsed/refractory PTCL [2]; the 2 patients who proceeded to stem cell transplant,20.9 months and 27.2 months and 20.1 months and 21.7 months
same,Median OS (months),relapsed/refractory PTCL [3]; [11],8.2 months
same,ORR by Central Review (CR + CRu + PR),relapsed/refractory PTCL [3]; [11],7%
same,ORR by Investigator Assessment (CR + CRu + PR),relapsed/refractory PTCL [3]; [11],7%
same,Median PFS by Central Review (months),relapsed/refractory PTCL [3]; [11],1.3 months
same,Median Duration of Response by Central Review (months),relapsed/refractory PTCL [3]; [12],10.1 months
same,Median OS (months),relapsed/refractory PTCL [3]; [12],20.5 months
same,ORR by Central Review (CR + CRu + PR),relapsed/refractory PTCL [3]; [12],45%
same,ORR by Investigator Assessment (CR + CRu + PR),relapsed/refractory PTCL [3]; [12],63%
same,Median PFS by Central Review (months),relapsed/refractory PTCL [3]; [12],4.9 months
same,Median Duration of Response by Central Review (months),relapsed/refractory PTCL [3]; [13],13.1 months
same,Median OS (months),relapsed/refractory PTCL [3]; [13],22.9 months
same,ORR by Central Review (CR + CRu + PR),relapsed/refractory PTCL [3]; [13],54%
same,ORR by Investigator Assessment (CR + CRu + PR),relapsed/refractory PTCL [3]; [13],70%
same,Median PFS by Central Review (months),relapsed/refractory PTCL [3]; [13],8.1 months
